Laboratory results: PMC10669656, “ADMET and Solubility Analysis of New 5-Nitroisatine-Based Inhibitors of CDK2 Enzymes” (Biomedicines, 2023)
≈ marks a conversion by molar mass, not a printed value. Where “and” joins values, the source holds several entries; their conditions need not be identical. Equal entries are not always repeated.

Experiments:
Assay type in all cases: physicochemical
[1] = Solubility in NMP-water binary mixtures; conditions: for solubility at 24 h: thermodynamic from solid
Description: (§1) The calibration curves for each derivative were obtained using successful dilutions of initial stock solutions followed by spectrophotometric measurements of the obtained solutions with decreasing concentration. The concentration ranges for the derivatives 1, 2, and 3 were 0.0081–0.0405 mg/mL, 0.0077–0.0385 mg/mL, and 0.0068–0.017 mg/mL, respectively. Methanol was used both as a solvent, as well as a reference for spectrophotometric measurements. […] The A360 spectrophotometer from AOE Instruments was used for the preparation of the calibration curves. […] Three calibration curves were prepared for each derivative and then averaged.
(§2) A multi-step procedure was employed in order to find the solubility of the studied derivatives in the selected solvents. First of all, the excess amount of the considered compound was added to test tubes containing either neat solvents or their mixtures with water in different proportions, thus forming binary solvents. Saturated solutions were obtained in this way, placed in a Shaker Incubator ES-20/60 from Biosan, and incubated for 24 h at 298.1 K. The temperature adjustment was possible with a 0.1-degree accuracy, and the variance within a 24 h cycle was 0.5 degrees. The samples were simultaneously mixed at 60 rev/min. After incubation, the samples were filtered with the help of plastic syringes equipped with PTFE filters with 0.22 µm pore size. The obtained filtrates were diluted with methanol in another set of test tubes. In order to determine the mole fractions of a solute in the solution, 1 mL of the filtered samples was weighed in 10 mL volumetric flasks using a RADWAG AS 110 R2.PLUS analytical balance. The samples diluted with methanol were measured spectrophotometrically using the same instrument as was used in the case of calibration curves. The spectra were recorded in the wavelength range of 190–500 nm, and the resolution was 1 nm. Methanol was used if further dilution of the sample was required, and it was also used as a reference for calibrating the spectrophotometer. The absorbance values at 315 nm, 321 nm, and 321 nm were taken into account for derivatives 1, 2, and 3, respectively. Based on the calibration curves, the concentration of the solute in the samples was determined together with its mole fraction. Three separate measurements were conducted, and the final values are the results of averaging them.

[2] = Solubility in neat solvents, shake-flask with spectrophotometric determination; conditions: for solubility at 24 h: 25 °C, organic solvent or mixture, thermodynamic from solid
Description: as §1, §2

[3] = Solubility in DMSO-water binary mixtures; conditions: for solubility at 24 h: 25 °C, thermodynamic from solid
Description: as §1, §2

[4] = neat γ-nonanoic lactone, 298.1 K

SMILES: O=C1Nc2ccc([N+](=O)[O-])cc2C1=NNC(=O)c1ccccc1C(F)(F)F [derivative 1, 2-trifluoromethyl-N′-[5-nitro-2-oxo-1,2-dihydro-3H-indol-3-ylidene]benzohydrazide]
- solubility at 24 h ([1]; NMP-water binary mixture, x*NMP 0.1, 25 °C, aqueous with cosolvent or surfactant or cyclodextrin, x*NMP 0.1, 298.1 K): 56.6 mg/mL (≈ 150 mM)
- solubility at 24 h ([1]; NMP-water binary mixture, x*NMP 0.2, 25 °C, aqueous with cosolvent or surfactant or cyclodextrin, x*NMP 0.2, 298.1 K): 111 mg/mL (≈ 293 mM)
- solubility at 24 h ([1]; NMP-water binary mixture, x*NMP 0.3, 25 °C, aqueous with cosolvent or surfactant or cyclodextrin, x*NMP 0.3, 298.1 K): 161 mg/mL (≈ 426 mM)
- solubility at 24 h ([1]; NMP-water binary mixture, x*NMP 0.4, 25 °C, aqueous with cosolvent or surfactant or cyclodextrin, x*NMP 0.4, 298.1 K): 205 mg/mL (≈ 542 mM)
- solubility at 24 h ([1]; NMP-water binary mixture, x*NMP 0.7, 25 °C, aqueous with cosolvent or surfactant or cyclodextrin, x*NMP 0.7, 298.1 K): 285 mg/mL (≈ 753 mM)
- solubility at 24 h ([1]; NMP-water binary mixture, x*NMP 0.8, 25 °C, aqueous with cosolvent or surfactant or cyclodextrin, x*NMP 0.8, 298.1 K): 294 mg/mL (≈ 777 mM)
- solubility at 24 h ([1]; NMP-water binary mixture, x*NMP 0.9, 25 °C, aqueous with cosolvent or surfactant or cyclodextrin, x*NMP 0.9, 298.1 K): 282 mg/mL (≈ 746 mM)
- solubility at 24 h ([1]; NMP-water binary solvent, 25 °C, aqueous with cosolvent or surfactant or cyclodextrin, x*NMP 0.5, 298.1 K): 248 mg/mL (≈ 656 mM)
- solubility at 24 h ([1]; NMP-water binary solvent, 25 °C, aqueous with cosolvent or surfactant or cyclodextrin, x*NMP 0.6, 298.1 K): 272 mg/mL (≈ 719 mM)
- solubility at 24 h ([1]; NMP-water series, x*NMP 1.0, 25 °C, organic solvent or mixture, x*NMP 1.0, 298.1 K): 265 mg/mL (≈ 701 mM)
- solubility x ([1]; x*NMP 0.1, 298.1 K): 3.86 (0.05) × 10^−3 mole fraction
- solubility x ([1]; x*NMP 0.2, 298.1 K): 1.05 (0.01) × 10^−2 mole fraction
- solubility x ([1]; x*NMP 0.3, 298.1 K): 1.98 (0.04) × 10^−2 mole fraction
- solubility x ([1]; x*NMP 0.4, 298.1 K): 3.09 (0.04) × 10^−2 mole fraction
- solubility x ([1]; x*NMP 0.6, 298.1 K): 5.77 (0.07) × 10^−2 mole fraction
- solubility x ([1]; x*NMP 0.7, 298.1 K): 6.87 (0.11) × 10^−2 mole fraction
- solubility x ([1]; x*NMP 0.8, 298.1 K): 7.76 (0.08) × 10^−2 mole fraction
- solubility x ([1]; x*NMP 0.9, 298.1 K): 7.96 (0.10) × 10^−2 mole fraction
- solubility x ([1]; x*NMP 1.0, 298.1 K): 8.06 (0.25) × 10^−2 mole fraction
- solubility at 24 h ([2]; neat DMF, 298.1 K): 119000 µg/mL (≈ 315 mM)
- solubility at 24 h ([2]; neat DMP, 298.1 K): 940 µg/mL (≈ 2.49 mM)
- solubility at 24 h ([2]; neat DMSO, 298.1 K): 327000 µg/mL (≈ 864 mM)
- solubility at 24 h ([2]; neat NMP, 298.1 K): 265000 µg/mL (≈ 701 mM)
- solubility at 24 h ([2]; neat acetone, 298.1 K): 4390 µg/mL (≈ 11.6 mM)
- solubility at 24 h ([2]; neat acetonitrile, 298.1 K): 2020 µg/mL (≈ 5.34 mM)
- solubility at 24 h ([2]; neat cyrene, 298.1 K): 1620 µg/mL (≈ 4.28 mM)
- solubility at 24 h ([2]; neat diglyme, 298.1 K): 2520 µg/mL (≈ 6.66 mM)
- solubility at 24 h ([2]; neat dioxane, 298.1 K): 4170 µg/mL (≈ 11 mM)
- solubility at 24 h ([2]; neat ethyl lactate, 298.1 K): 1250 µg/mL (≈ 3.3 mM)
- solubility at 24 h ([2]; neat methanol, 298.1 K): 1510 µg/mL (≈ 3.99 mM)
- solubility at 24 h ([2]; neat tetraglyme, 298.1 K): 4620 µg/mL (≈ 12.2 mM)
- solubility at 24 h ([2]; neat triglyme, 298.1 K): 950 µg/mL (≈ 2.51 mM)
- solubility at 24 h ([2]; neat γ-heptalactone, 298.1 K): 1780 µg/mL (≈ 4.71 mM)
- solubility at 24 h [2, 4]: 1160 µg/mL (≈ 3.07 mM)
- solubility at 24 h ([2]; neat 1-butanol): 470 µg/mL (≈ 1.24 mM)
- solubility x ([2]; neat 1-butanol, 298.1 K): 1.11 (0.04) × 10^−4 mole fraction
- solubility at 24 h ([2]; neat 1-propanol): 610 µg/mL (≈ 1.61 mM)
- solubility x ([2]; neat 1-propanol, 298.1 K): 1.19 (0.05) × 10^−4 mole fraction
- solubility at 24 h ([2]; neat 4FM): 7220 µg/mL (≈ 19.1 mM)
- solubility x ([2]; neat 4FM, 298.1 K): 1.88 (0.04) × 10^−3 mole fraction
- solubility x ([2]; neat DMF, 298.1 K): 2.66 × 10^−2 mole fraction and 2.66 (0.55) × 10^−2 mole fraction
- solubility x ([2]; neat DMP, 298.1 K): 2.96 (0.11) × 10^−4 mole fraction
- solubility x ([2]; neat DMSO, 298.1 K): 7.70 × 10^−2 mole fraction and 7.70 (0.11) × 10^−2 mole fraction
- solubility x ([2]; neat NMP, 298.1 K): 8.06 × 10^−2 mole fraction and 8.06 (0.25) × 10^−2 mole fraction
- solubility x ([2]; neat acetone, 298.1 K): 8.38 (0.16) × 10^−4 mole fraction
- solubility x ([2]; neat acetonitrile, 298.1 K): 2.76 (0.12) × 10^−4 mole fraction
- solubility x ([2]; neat cyrene, 298.1 K): 4.37 (0.09) × 10^−4 mole fraction
- solubility x ([2]; neat diglyme, 298.1 K): 9.43 (0.90) × 10^−4 mole fraction
- solubility x ([2]; neat dioxane, 298.1 K): 9.21 (0.21) × 10^−4 mole fraction
- solubility at 24 h ([2]; neat ethanol): 820 µg/mL (≈ 2.17 mM)
- solubility x ([2]; neat ethanol, 298.1 K): 1.26 (0.04) × 10^−4 mole fraction
- solubility x ([2]; neat ethyl lactate, 298.1 K): 3.75 (0.10) × 10^−4 mole fraction
- solubility x ([2]; neat methanol, 298.1 K): 1.60 (0.05) × 10^−4 mole fraction
- solubility x ([2]; neat triglyme, 298.1 K): 4.48 (0.06) × 10^−4 mole fraction
- solubility x ([2]; neat γ-heptalactone, 298.1 K): 5.92 (0.08) × 10^−4 mole fraction
- solubility x [2, 4]: 4.81 (0.06) × 10^−4 mole fraction
- solubility at 24 h ([2]; neat ε-caprolactone): 1600 µg/mL (≈ 4.23 mM)
- solubility x ([2]; neat ε-caprolactone, 298.1 K): 4.42 (0.09) × 10^−4 mole fraction
- solubility at 24 h ([3]; DMSO-water binary mixture, aqueous with cosolvent or surfactant or cyclodextrin, x*DMSO 0.1, 298.1 K): 88 mg/mL (≈ 233 mM)
- solubility at 24 h ([3]; DMSO-water binary mixture, aqueous with cosolvent or surfactant or cyclodextrin, x*DMSO 0.2, 298.1 K): 179 mg/mL (≈ 473 mM)
- solubility at 24 h ([3]; DMSO-water binary mixture, aqueous with cosolvent or surfactant or cyclodextrin, x*DMSO 0.3, 298.1 K): 219 mg/mL (≈ 579 mM)
- solubility at 24 h ([3]; DMSO-water binary mixture, aqueous with cosolvent or surfactant or cyclodextrin, x*DMSO 0.4, 298.1 K): 261 mg/mL (≈ 690 mM)
- solubility at 24 h ([3]; DMSO-water binary mixture, aqueous with cosolvent or surfactant or cyclodextrin, x*DMSO 0.5, 298.1 K): 305 mg/mL (≈ 806 mM)
- solubility at 24 h ([3]; DMSO-water binary mixture, aqueous with cosolvent or surfactant or cyclodextrin, x*DMSO 0.6, 298.1 K): 336 mg/mL (≈ 888 mM)
- solubility at 24 h ([3]; DMSO-water binary mixture, aqueous with cosolvent or surfactant or cyclodextrin, x*DMSO 0.7, 298.1 K): 356 mg/mL (≈ 941 mM)
- solubility at 24 h ([3]; DMSO-water binary mixture, aqueous with cosolvent or surfactant or cyclodextrin, x*DMSO 0.8, 298.1 K): 363 mg/mL (≈ 960 mM)
- solubility at 24 h ([3]; DMSO-water binary mixture, aqueous with cosolvent or surfactant or cyclodextrin, x*DMSO 0.9, 298.1 K): 355 mg/mL (≈ 938 mM)
- solubility at 24 h ([3]; DMSO-water series, organic solvent or mixture, x*DMSO 1.0, 298.1 K): 327 mg/mL (≈ 864 mM)
- solubility x ([3]; x*DMSO 0.1, 298.1 K): 5.27 (0.10) × 10^−3 mole fraction
- solubility x ([3]; x*DMSO 0.2, 298.1 K): 1.47 (0.02) × 10^−2 mole fraction
- solubility x ([3]; x*DMSO 0.3, 298.1 K): 2.25 (0.03) × 10^−2 mole fraction
- solubility x ([3]; x*DMSO 0.4, 298.1 K): 3.25 (0.05) × 10^−2 mole fraction
- solubility x ([3]; x*DMSO 0.5, 298.1 K): 4.46 (0.08) × 10^−2 mole fraction
- solubility x ([3]; x*DMSO 0.6, 298.1 K): 5.69 (0.15) × 10^−2 mole fraction
- solubility x ([3]; x*DMSO 0.7, 298.1 K): 6.72 (0.14) × 10^−2 mole fraction
- solubility x ([3]; x*DMSO 0.8, 298.1 K): 7.60 (0.10) × 10^−2 mole fraction
- solubility x ([3]; x*DMSO 0.9, 298.1 K): 8.00 (0.14) × 10^−2 mole fraction
- solubility x ([3]; x*DMSO 1.0, 298.1 K): 7.70 (0.11) × 10^−2 mole fraction
